Measurements as given in patent US9701689B2, “Substituted pyridines and pyridazines as CCR10 receptor inhibitors” (KYOWA HAKKO KIRIN CO., LTD., priority 2012, dated 2017).

The molecules below were run against T1, human CCR10 (Homo sapiens, UniProt P46092) (assay: CCR10 antagonistic effect: calcium assay of human CCR10 (CTACK-induced increase of intracellular calcium in hCCR10G16 cells)). Settings: at a concentration of not more than 1000 nmol/L; human CCR10-expressing hCCR10G16 cells, 300 nmol/L CTACK added; read-out: inhibition of increase in the calcium ion concentration.
T1 construct: expressed in transfected cells; host or cells: KJMGER8 cells (Namalwa cell-derived line), beta-estradiol-induced; hCCR10G16 cells
T1 sequence (P46092 1-362): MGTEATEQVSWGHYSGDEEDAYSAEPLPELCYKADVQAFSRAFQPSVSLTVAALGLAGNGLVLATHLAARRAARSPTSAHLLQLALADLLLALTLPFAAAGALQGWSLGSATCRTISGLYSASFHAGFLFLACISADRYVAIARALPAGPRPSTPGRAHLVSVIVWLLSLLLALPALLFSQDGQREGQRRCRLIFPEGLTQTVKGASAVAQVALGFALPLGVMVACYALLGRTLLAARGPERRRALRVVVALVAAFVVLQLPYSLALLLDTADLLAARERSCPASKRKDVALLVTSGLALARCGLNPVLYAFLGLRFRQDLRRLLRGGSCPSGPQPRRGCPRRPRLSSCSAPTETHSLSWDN
Type: cell-based
Summary of the method: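 Inhibition of CTACK-evoked calcium flux (max minus min Fluo-3 fluorescence over ~5 min, FDSS) was calculated against control in β-estradiol-induced human CCR10/Gα16 KJMGER8 cells, after 30 min compound preincubation at 37 °C; CTACK added from a 300 nmol/L solution.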

Row | SMILES | inhibition at up to 1 µM [%]
1 | Cc1cccc(Nc2c(C(=O)N3CCN(c4ccc(F)cc4)C(=O)C3)cnc(S(N)(=O)=O)c2Cl)c1 [Compound 209, 3-chloro-5-[4-(4-fluorophenyl)-3-oxopiperazine-1-carbonyl]-4-(m-tolylamino)pyridine-2-sulfonamide] | ≥ 50
2 | Cc1c(S(=O)(=O)Nc2ccon2)ncc(C(=O)N2CCC(c3ccc(F)cc3)CC2)c1Nc1ccc(F)cc1Cl [Compound 273, 4-(2-chloro-4-fluorophenylamino)-5-[4-(4-fluorophenyl)piperidine-1-carbonyl]-N-(isoxazol-3-yl)-3-methylpyridine-2-sulfonamide] | ≥ 50
3 | Cc1c(S(=O)(=O)Nc2ccon2)ncc(C(=O)N2CCC(c3ccc(F)cc3)CC2)c1NC1CCCCC1 [Compound 215, 4-(cyclohexylamino)-5-[4-(4-fluorophenyl)piperidine-1-carbonyl]-N-(isoxazol-3-yl)-3-methylpyridine-2-sulfonamide] | ≥ 50
4 | NS(=O)(=O)c1ncc(C(=O)N2CCC(c3ccc(F)cc3)CC2)c(Nc2ccc(Cl)cc2F)c1Cl [Compound 28, 3-chloro-4-(4-chloro-2-fluorophenylamino)-5-[4-(4-fluorophenyl)piperidine-1-carbonyl]pyridine-2-sulfonamide] | ≥ 50
5 | Cc1cc(F)ccc1Nc1cc(S(N)(=O)=O)ncc1C(=O)N1CCC(c2ccccc2)CC1 [Compound 48, 4-(4-fluoro-2-methylphenylamino)-5-(4-phenylpiperidine-1-carbonyl)pyridine-2-sulfonamide] | ≥ 50
6 | CCc1ccc(Nc2c(C(=O)N3CCC(c4ccc(F)cc4)CC3)cnc(S(N)(=O)=O)c2Cl)cc1 [Compound 310, 3-chloro-4-(4-ethylphenylamino)-5-[4-(4-fluorophenyl)piperidine-1-carbonyl]pyridine-2-sulfonamide] | ≥ 50
7 | Cc1c(S(=O)(=O)Nc2ccon2)ncc(C(=O)N2CCC(c3ccc(F)cc3)CC2)c1Nc1cc(F)ccc1Cl [Compound 274, 4-(2-chloro-5-fluorophenylamino)-5-[4-(4-fluorophenyl)piperidine-1-carbonyl]-N-(isoxazol-3-yl)-3-methylpyridine-2-sulfonamide] | ≥ 50
8 | Cc1c(Cl)cccc1Nc1cc(S(N)(=O)=O)ncc1C(=O)N1CCC(c2ccc(F)cc2)CC1 [Compound 57, 4-(3-chloro-2-methylphenylamino)-5-[4-(4-fluorophenyl)piperidine-1-carbonyl]pyridine-2-sulfonamide] | ≥ 50
9 | NS(=O)(=O)c1cc(Nc2ccc(OC(F)F)cc2)c(C(=O)N2CCC(c3ccc(F)cc3)CC2)cn1 [Compound 106, 4-[4-(difluoromethoxy)phenylamino]-5-[4-(4-fluorophenyl)piperidine-1-carbonyl]pyridine-2-sulfonamide] | ≥ 50
10 | NS(=O)(=O)c1ncc(C(=O)N2CCC(c3ccc(F)cc3)CC2)c(Nc2cc(F)ccc2Cl)c1Cl [Compound 325, 3-chloro-4-(2-chloro-5-fluorophenylamino)-5-[4-(4-fluorophenyl)piperidine-1-carbonyl]pyridine-2-sulfonamide] | ≥ 50
11 | Cc1c(S(=O)(=O)Nc2ccon2)ncc(C(=O)N2CCC(c3ccc(F)cc3)CC2)c1Nc1cc(Cl)ccc1Cl [Compound 281, 4-(2,5-dichlorophenylamino)-5-[4-(4-fluorophenyl)piperidine-1-carbonyl]-N-(isoxazol-3-yl)-3-methylpyridine-2-sulfonamide] | ≥ 50
12 | CCNC(=O)NS(=O)(=O)c1cc(Nc2cc(C)c(Cl)cc2C)c(C(=O)N2CCC(c3ccc(F)cc3)CC2)cn1 [Compound 166, 4-(4-chloro-2,5-dimethylphenylamino)-N-(ethylcarbamoyl)-5-[4-(4-fluorophenyl)piperidine-1-carbonyl]pyridine-2-sulfonamide] | ≥ 50
13 | COC1(c2ccc(F)cc2)CCN(C(=O)c2cnc(S(N)(=O)=O)c(Cl)c2Nc2cccc(C)c2)CC1 [Compound 208, 3-chloro-5-[4-(4-fluorophenyl)-4-methoxypiperidine-1-carbonyl]-4-(m-tolylamino)pyridine-2-sulfonamide] | ≥ 50
14 | Cc1cc(NS(=O)(=O)c2ncc(C(=O)N3CCC(c4ccc(F)cc4)CC3)c(Nc3ccccc3)c2C)sn1 [Compound 277, 5-[4-(4-fluorophenyl)piperidine-1-carbonyl]-3-methyl-N-(3-methylisothiazol-5-yl)-4-(phenylamino)pyridine-2-sulfonamide] | ≥ 50
15 | NS(=O)(=O)c1ncc(C(=O)N2CCC(c3ccc(F)cc3)CC2)c(Nc2ccc(F)cc2F)c1Cl [Compound 27, 3-chloro-4-(2,4-difluorophenylamino)-5-[4-(4-fluorophenyl)piperidine-1-carbonyl]pyridine-2-sulfonamide] | ≥ 50

Next, values leading:

Row | inhibition at up to 1 µM [%] | SMILES
16 | ≥ 50 | Cc1cc(F)ccc1Nc1c(C(=O)N2CCC(c3ccc(F)cc3)CC2)cnc(S(=O)(=O)N2C(=O)OCC2(C)C)c1Cl [Compound 187, 3-{3-chloro-4-(4-fluoro-2-methylphenylamino)-5-[4-(4-fluorophenyl)piperidine-1-carbonyl]pyridin-2-ylsulfonyl}-4,4-dimethyloxazolidin-2-one]
17 | ≥ 50 | Cc1cc(F)ccc1Nc1cc(S(=O)(=O)Nc2c(C)noc2C)ncc1C(=O)N1CCC(c2ccc(F)cc2)CC1 [Compound 151, N-(3,5-dimethylisoxazol-4-yl)-4-(4-fluoro-2-methylphenylamino)-5-[4-(4-fluorophenyl)piperidine-1-carbonyl]pyridine-2-sulfonamide]
18 | ≥ 50 | Cc1cc(Nc2cc(S(N)(=O)=O)ncc2C(=O)N2CCC(c3ccc(F)cc3)CC2)ccc1F [Compound 83, 4-(4-fluoro-3-methylphenylamino)-5-[4-(4-fluorophenyl)piperidine-1-carbonyl]pyridine-2-sulfonamide]
19 | ≥ 50 | COC(=O)C1CCCN1S(=O)(=O)c1cc(Nc2ccc(F)cc2C)c(C(=O)N2CCC(c3ccc(F)cc3)CC2)cn1 (stereo not shown) [Compound 116, methyl 1-{4-(4-fluoro-2-methylphenylamino)-5-[4-(4-fluorophenyl)piperidine-1-carbonyl]pyridin-2-ylsulfonyl}pyrrolidine-2-carboxylate]
20 | ≥ 50 | Cc1cc(F)ccc1Nc1cc(S(=O)(=O)N2CCNCC2)ncc1C(=O)N1CCC(c2ccc(F)cc2)CC1 [Compound 9, [4-(4-fluoro-2-methylphenylamino)-6-(piperazin-1-ylsulfonyl)pyridin-3-yl][4-(4-fluorophenyl)piperidin-1-yl]methanone]
21 | ≥ 50 | Cc1ccc(C)c(Nc2cc(S(N)(=O)=O)ncc2C(=O)N2CCC(c3ccc(F)cc3)CC2)c1 [Compound 53, 4-(2,5-dimethylphenylamino)-5-[4-(4-fluorophenyl)piperidine-1-carbonyl]pyridine-2-sulfonamide]
22 | ≥ 50 | COc1ccc(Nc2cc(S(N)(=O)=O)ncc2C(=O)N2CCC(c3ccc(F)cc3)CC2)c(F)c1 [Compound 87, 4-(2-fluoro-4-methoxyphenylamino)-5-[4-(4-fluorophenyl)piperidine-1-carbonyl]pyridine-2-sulfonamide]
